Results published in EPA's ToxValDB 9.5 (doi:10.2903/j.efsa.2009.1415).
≈ marks a conversion by molar mass, not a printed value.

Tests used:
Anas platyrhynchos = conditions: short-term; oral; feed; mortality
Apis mellifera = conditions: acute; duration: 48 hours; dermal; mortality
Cyprinus carpio = conditions: acute; duration: 96 hours; mortality
Daphnia magna = conditions: chronic/long-term; duration: 21 days; reproduction
Pimephales promelas = conditions: chronic/long-term; duration: 35 days; growth
Typhlodromus pyri = test: LR50; higher = less toxic; conditions: not reported; mortality

`CCCOCC(=Nc1ccc(Cl)cc1C(F)(F)F)n1ccnc1` [Triflumizole] was tested. Which LC50 (Anas platyrhynchos) did it give?
The LC50 was > 1430 mg/kg-day.

What about the LD50 (Apis mellifera) of the same compound?
The LD50 was > 20 µg/piece.

And the LD50 (Colinus virginianus; acute, oral, mortality)?
The LD50 was > 2510 mg/kg-day.

And the NOEC (Colinus virginianus; reproduction developmental)?
Its NOEC is ≥ 97.2 mg/kg-day.

And the LC50 (Cyprinus carpio)?
The LC50 was 1.28 mg/L (≈ 3.7 µM).

What about the NOEC (Daphnia magna) of the same compound?
The NOEC was 0.18 mg/L.

What about the NOEC (Pimephales promelas) of the same compound?
The NOEC was 0.044 mg/L.

And the LD50 (Rattus norvegicus; acute, oral, mortality)?
Its LD50 is 1060 mg/kg-day.

And the NOAEL (Rattus norvegicus; chronic, duration: 2 years, organ weight)?
The NOAEL was 3.5 mg/kg-day.

And the NOAEL (Rattus norvegicus; developmental, development)?
The NOAEL was 10 mg/kg-day.

What about the NOAEL (Rattus norvegicus; reproduction developmental, reproduction) of the same compound?
The NOAEL was 4.8 mg/kg-day.

And the NOAEL (Rattus norvegicus; subchronic, duration: 90 days, organ weight)?
Its NOAEL is 4.1 mg/kg-day.

What about the LR50 (Typhlodromus pyri) of the same compound?
The LR50 was 63 g/ha.
